Biological target: T1, PPARγ2/RXR (Homo sapiens, UniProt P37231)
T1 construct: host or cells: HEK293T, with (A8) or without (A9) co-expressed hGLP-1R
T1 sequence (P37231 1-505): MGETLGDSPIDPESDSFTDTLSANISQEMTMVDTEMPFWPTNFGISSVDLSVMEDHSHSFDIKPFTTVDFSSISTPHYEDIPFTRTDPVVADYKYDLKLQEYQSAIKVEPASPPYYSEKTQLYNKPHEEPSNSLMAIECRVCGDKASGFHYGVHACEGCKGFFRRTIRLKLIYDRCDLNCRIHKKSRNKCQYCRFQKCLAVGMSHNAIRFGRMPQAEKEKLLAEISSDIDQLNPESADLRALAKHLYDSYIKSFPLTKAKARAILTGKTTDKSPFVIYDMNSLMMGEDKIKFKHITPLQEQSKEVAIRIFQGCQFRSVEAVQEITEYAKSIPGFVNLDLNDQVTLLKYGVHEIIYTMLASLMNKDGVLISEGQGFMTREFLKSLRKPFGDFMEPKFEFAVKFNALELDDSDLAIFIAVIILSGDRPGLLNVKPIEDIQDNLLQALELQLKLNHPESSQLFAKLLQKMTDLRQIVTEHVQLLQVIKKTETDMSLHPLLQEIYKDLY
T1 sequence (P19793 1-462 partner): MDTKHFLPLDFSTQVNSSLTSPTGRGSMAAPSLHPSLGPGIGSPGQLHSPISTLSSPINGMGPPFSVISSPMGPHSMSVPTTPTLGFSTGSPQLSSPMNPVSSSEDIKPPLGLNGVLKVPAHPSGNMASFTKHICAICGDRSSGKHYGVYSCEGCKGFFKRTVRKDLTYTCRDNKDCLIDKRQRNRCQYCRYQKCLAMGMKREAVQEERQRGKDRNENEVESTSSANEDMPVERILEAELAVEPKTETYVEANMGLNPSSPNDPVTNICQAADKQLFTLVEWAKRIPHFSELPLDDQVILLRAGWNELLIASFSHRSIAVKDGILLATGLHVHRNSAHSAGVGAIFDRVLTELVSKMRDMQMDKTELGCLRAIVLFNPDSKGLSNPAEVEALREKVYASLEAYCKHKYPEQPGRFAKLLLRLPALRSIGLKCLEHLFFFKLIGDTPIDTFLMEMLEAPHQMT
Test: RXR-Rluc8 / PPARγ2-YFP heterodimerization (BRET) in hGLP-1R(+) HEK293T cells
Assay type: cell-based
Conditions: GLP-1R (+), 1μM
Protocol: HEK293T cells (700,000 per well) were seeded in six-well plates and incubated to 70% confluency in DMEM (10% FBS, 1% Pen/Strep). Twenty-four hours following seeding, transient transfections were performed using Lipofectamine 2000 (catalogue no. 11668019, Invitrogen) according to the manufacturer’s protocol without including additional transformation carrier DNA.
Twenty-four hours following transfection, HEK293T cells or MIN6 cells were washed with PBS and resuspended in FluoroBrite phenol red-free complete media (catalogue no. A1896701, Life Technologies) containing 5% FBS and 2 mM of L-glutamine (catalogue no. 25030081, Life Technologies). 100,000 cells per well were plated into poly-D-lysine-coated (catalogue no. P6403, Sigma-Aldrich) 96-well white polystyrene LumiNunc plates (catalogue no. 10072151, Thermo Fisher Scientific). After 24 h, the media was replaced with PBS (catalogue no. 10010056, Gibco) containing 10 μM of coelenterazine-h (catalogue no. S2011, Promega) or 1:500 dilution of NanoGlo (catalogue no. N1110, Promega). BRET measurements were taken every 30 s–2 min using a PHERAstar FS multi-mode microplate reader. Baseline measurements were taken after an initial 5 min of incubation with coelenterazine-h or NanoGlo-containing PBS after which cells were then treated with either vehicle (PBS) or respective ligands. The resulting ligand-specific ratiometric BRET signals were normalized to vehicle producing the ‘ligand-induced BRET ratio’[37], followed by an additional normalization step to well-specific baseline readings. Ligand-induced measurements on the temporal scale is represented as the subsequent measurement after time point zero. Positive or negative incremental AUC (+iAUC/−iAUC) were calculated where noted. Each experiment was independently performed at least three times, each with at least three technical replicates for each group.
Untagged hGLP-1R was purchased from Sino Biological Inc. (catalogue no. HG13944-UT), hGLP-1R-GFP was a kind gift from D. Hodson (University of Birmingham), and hGLP-1R-Rluc8 was a kind gift from P. Sexton (Monash University, Melbourne, Australia). Gαs recruitment to the GLP-1R-GFP was quantified using mini-Gαs, a protein probe that translocates to ligand-bound Gαs-coupled G-protein coupled receptors. NES-Nluc-MiniGαs was a gift from K. Pfleger (Harry Perkins Institute of Medical Research, Nedlands, Western Australia, Australia). Intracellular cAMP was measured using the YFP-Epac-Rluc CAMYEL sensor[39]. hGLP-1R-RLUC8 internalization was quantified using the intracellular plasma membrane marker Venus-KRAS[40]. Venus-KRAS was a kind gift from K. Pfleger. GLP-1R-Rluc8 lysosomal colocalization was measured using Lamp1-mNeonGreen. Lamp1-mNeonGreen was a gift from D. Gadella (Addgene plasmid no. 98882). Time-dependent RXR/PPARγ heterodimerization was measured using RXR-Rluc8 and PPARγ2-YFP, both of which were kind gifts from V. Ollendorf[41].

CCO[C@@H](Cc1ccc(OCCc2ccc(OS(C)(=O)=O)cc2)cc1)C(=O)O [tesaglitazar, (S)-2-ethoxy-3-(4-(4-((methylsulfonyl)oxy)phenethoxy)phenyl) propanoic acid]
RXR/PPARγ Heterodimerization (AUC), +iAUC (replicate 1): 81.74 | RXR/PPARγ Heterodimerization (AUC), +iAUC (replicate 2): 115.10 | RXR/PPARγ Heterodimerization (AUC), +iAUC (replicate 3): 84.31 | RXR/PPARγ Heterodimerization (AUC), +iAUC (replicate 4): 42.82 | RXR/PPARγ Heterodimerization (AUC), +iAUC (replicate 5): 35.86 | RXR/PPARγ Heterodimerization (AUC), +iAUC (replicate 6): 49.17 | RXR/PPARγ Heterodimerization (AUC), +iAUC (replicate 7): 59.85 | RXR/PPARγ Heterodimerization (AUC), +iAUC (replicate 8): 106.60
